# How the values were obtained:
# [1] = Metabolic stability in human RBC assessed as retention time of corresponding dihydroanalogue at 7.8 mg/ml by LC-MS analysis; format: ADME, cell-based; settings: erythrocyte
# [2] = Metabolic stability in human RBC assessed as retention time at 7.8 mg/ml by LC-MS analysis; format: ADME, cell-based; settings: erythrocyte
# [3] = Selectivity index, ratio of CC50 for human MCF7 cells to IC50 for Plasmodium falciparum FcB1; format: functional
# [4] = Half life in CD-1 mouse liver microsomes by LC-FL analysis; format: ADME
# Plasmodium falciparum = assay: Antiplasmodial activity against Plasmodium falciparum FcB1; format: functional, organism-based
# [5] = Cytotoxicity against human MCF7 cells; format: cell-based
# [6] = Half life in mouse liver microsomes; format: ADME
# [7] = Drug metabolism in healthy human RBC assessed as 1-HH formation after 3 hrs; format: ADME, cell-based; settings: erythrocyte
# [8] = Drug metabolism assessed as 1-HH metabolite formation in presence of haematin; format: physicochemical
# [9] = Drug metabolism assessed as 1-HH metabolite formation in presence of haemoglobin; format: physicochemical
# [10] = Drug metabolism in human phenylhydrazine-treated RBC assessed as 1-HH formation after 3 hrs; format: ADME, cell-based; settings: erythrocyte
# [11] = Drug metabolism in human heat-denaturated RBC; format: ADME, cell-based; settings: erythrocyte
# [12] = Drug metabolism in CDNB-treated human RBC assessed as 1-HH formation after 4 hrs by HPLC-FL analysis; format: ADME, cell-based; settings: erythrocyte
# [13] = Drug metabolism assessed as 1-HH metabolite formation in presence of haemin; format: physicochemical
# [14] = Drug metabolism in human RBC assessed as 1-HH formation after 4 hrs by HPLC-FL analysis; format: ADME, cell-based; settings: erythrocyte
# [15] = Cellular uptake in human RBC assessed as intracellular level at 1 mg/ml measured immediately; format: ADME, cell-based; settings: erythrocyte
# [16] = Drug metabolism in cytoplasm of human RBC assessed as 1-HH metabolite formation after 3 hrs; format: ADME; settings: erythrocytes
# [17] = Drug metabolism in human RBC assessed as 1-HH formation at 5 mM at 37 degC after 6 hrs by HPLC-FL analysis; format: ADME, cell-based; settings: erythrocyte, 5000 µM
# [18] = Metabolic stability in human RBC assessed as increase in extracellular dihydroanalogue metabolite level at 1 mg/ml; format: ADME, cell-based; settings: erythrocyte, TDE = time-dependent effect
# [19] = Drug metabolism in human beta-thalassemic RBC assessed as 1-HH formation after 3 hrs; format: ADME, cell-based; settings: erythrocyte
# [20] = Drug metabolism in CD-1 mouse liver microsomes assessed as 1-HH metabolite formation after 10 mins by LC-FL analysis; format: ADME
# [21] = Drug metabolism in human RBC assessed as 1-HH formation at 5 mM at 4 degC after 6 hrs by HPLC-FL analysis; format: ADME, cell-based; settings: erythrocyte, 5000 µM
# [22] = Drug metabolism assessed as 1-HH metabolite formation after 3 hrs in presence of ghost fraction; format: physicochemical
# [23] = Drug metabolism in human RBC infected with late stage Plasmodium falciparum assessed as 1-HH formation after 3 hrs; format: ADME, cell-based; settings: erythrocyte
# [24] = Drug metabolism assessed as 1-HH metabolite formation in presence of human haemoglobin; format: ADME
# [25] = Drug metabolism assessed as 1-HH metabolite formation after 3 hrs in presence of human haemoglobin; format: physicochemical
# [26] = Drug metabolism in human NEM-treated RBC assessed as 1-HH formation after 4 hrs by HPLC-FL analysis; format: ADME, cell-based; settings: erythrocyte
# [27] = Drug metabolism assessed as 1-HH metabolite formation in presence of ferrous ion; format: physicochemical
compound,measurement,setting,value
COc1ccc2cc(C3=[N+]([O-])c4ccccc4C3=O)ccc2c1,Retention_time,[1],9.9 min
same,Retention_time,[2],17.4 min
O=C1c2cc3c(cc2NC1(O)c1ccc(Cl)cc1)OCO3 (stereo not drawn),Ratio CC50/IC50,[3],66
same,half-life,[4],10 min
same,IC50,Plasmodium falciparum,1030 nM
same,CC50,[5],68 µM
COc1ccc2c(c1)C(=O)C(c1ccc(Oc3ccccc3)cc1)=[N+]2[O-],Retention_time,[1],11.3 min
same,Retention_time,[2],23.5 min
O=C1C(c2ccc(Cl)c(Cl)c2)=[N+]([O-])c2ccccc21,Retention_time,[1],11.2 min
same,Retention_time,[2],20.9 min
COc1ccc2c(c1)C(=O)C(c1ccc(N(C)C)cc1)=[N+]2[O-],Retention_time,[1],8.2 min
same,half-life,[6],6 min
same,Retention_time,[2],14 min
same,IC50,Plasmodium falciparum,3 nM
COc1ccc2c(c1)C(=O)C(c1ccc(Cl)c(C)c1)=[N+]2[O-],Retention_time,[1],10.4 min
same,Retention_time,[2],22.6 min
O=C1C(c2ccc(Cl)cc2)=[N+]([O-])c2cc3c(cc21)OCO3,Drug metabolism,[7],Active
same,Ratio CC50/IC50,[3],264
same,Stability,[8],Stable
same,Stability,[9],Stable
same,Retention_time,[1],9.6 min
same,Drug metabolism,[10],Active
same,Stability,[11],Stable
same,Retention_time,[2],18.2 min
same,Drug metabolism,[12],Not Active
same,Stability,[13],Stable
same,Drug metabolism,[14],Active
same,half-life,[4],< 1 min
same,Drug uptake,[15],Active
same,Drug metabolism,[16],Active
same,Drug metabolism,[17],Active
same,Drug metabolism,[18],tde
same,Drug metabolism,[19],Active
same,Stability,[20],Stable
same,Drug metabolism,[21],Active
same,Stability,[22],Stable
same,Drug metabolism,[23],Active
same,Stability,[24],Stable
same,Stability,[25],Stable
same,Drug metabolism,[26],Not Active
same,CC50,[5],23 µM
same,Stability,[27],Stable
CCN(CC)CCCC(C)Nc1ccnc2cc(Cl)ccc12 (stereo not drawn) [CHLOROQUINE],CC50,[5],19 µM

# Reference: ChEMBL document CHEMBL3217635, “Pharmacological properties of indolone-N-oxides controlled by a bioreductive transformation in red blood cells?” (Medchemcomm, 2011)
